Measurements from the supplement of paper PMC6733853.

What was measured:
mu opioid receptor (rat) [1] = target: mu opioid receptor (rat) (UniProt P33535); assay: Log(tau/KA) transduction coefficient (log10 (M-1)); higher = more effective agonism; conditions: receptor: rat MOR
[2] = target: delta opioid receptor (rat) (UniProt P33533); assay: as above; conditions: receptor: rat DOR
[3] = target: delta opioid receptor (human) (UniProt P41143); assay: as above; conditions: receptor: human DOR
[4] = target: delta opioid receptor (rat) (UniProt P33533)
[5] = target: mu opioid receptor (human) (UniProt P35372); assay: Log(tau/KA) transduction coefficient (log10 (M-1)); higher = more effective agonism; conditions: receptor: human MOR
mu opioid receptor (rat) [6] = target: mu opioid receptor (rat) (UniProt P33535)

mu opioid receptor (human), sequence (P35372 whole entry): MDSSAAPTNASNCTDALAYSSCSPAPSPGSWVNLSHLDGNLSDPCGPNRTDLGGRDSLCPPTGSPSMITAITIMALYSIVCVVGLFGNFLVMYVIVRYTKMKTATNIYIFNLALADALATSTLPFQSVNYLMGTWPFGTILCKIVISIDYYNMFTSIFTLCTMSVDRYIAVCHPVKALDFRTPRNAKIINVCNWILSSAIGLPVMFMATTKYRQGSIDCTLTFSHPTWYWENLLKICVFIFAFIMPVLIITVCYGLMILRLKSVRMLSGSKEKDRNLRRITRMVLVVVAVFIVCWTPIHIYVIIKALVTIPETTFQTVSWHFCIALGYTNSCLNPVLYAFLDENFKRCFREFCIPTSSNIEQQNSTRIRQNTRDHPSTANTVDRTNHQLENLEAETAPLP
mu opioid receptor (rat), sequence (P33535 whole entry): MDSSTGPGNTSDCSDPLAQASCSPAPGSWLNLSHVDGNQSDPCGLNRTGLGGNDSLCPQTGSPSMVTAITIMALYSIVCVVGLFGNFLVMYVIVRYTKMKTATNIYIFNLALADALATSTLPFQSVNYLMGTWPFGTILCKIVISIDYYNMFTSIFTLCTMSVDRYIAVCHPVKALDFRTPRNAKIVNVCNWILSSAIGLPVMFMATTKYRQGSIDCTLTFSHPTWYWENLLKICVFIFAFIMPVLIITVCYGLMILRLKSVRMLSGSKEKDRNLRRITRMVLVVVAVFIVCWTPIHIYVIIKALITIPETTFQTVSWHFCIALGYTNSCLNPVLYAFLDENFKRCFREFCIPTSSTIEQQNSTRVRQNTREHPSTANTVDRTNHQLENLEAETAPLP
delta opioid receptor (rat), sequence (P33533 whole entry): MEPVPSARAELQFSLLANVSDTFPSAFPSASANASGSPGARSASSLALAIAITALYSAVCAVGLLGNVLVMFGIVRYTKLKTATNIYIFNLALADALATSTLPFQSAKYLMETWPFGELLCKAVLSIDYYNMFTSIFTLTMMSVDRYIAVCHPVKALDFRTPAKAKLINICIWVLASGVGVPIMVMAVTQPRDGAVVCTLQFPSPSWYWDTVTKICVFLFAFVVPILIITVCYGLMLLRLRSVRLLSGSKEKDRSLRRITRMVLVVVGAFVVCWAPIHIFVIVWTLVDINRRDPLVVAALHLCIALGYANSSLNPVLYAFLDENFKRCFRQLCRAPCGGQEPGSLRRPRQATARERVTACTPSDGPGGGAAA
delta opioid receptor (human), sequence (P41143 whole entry): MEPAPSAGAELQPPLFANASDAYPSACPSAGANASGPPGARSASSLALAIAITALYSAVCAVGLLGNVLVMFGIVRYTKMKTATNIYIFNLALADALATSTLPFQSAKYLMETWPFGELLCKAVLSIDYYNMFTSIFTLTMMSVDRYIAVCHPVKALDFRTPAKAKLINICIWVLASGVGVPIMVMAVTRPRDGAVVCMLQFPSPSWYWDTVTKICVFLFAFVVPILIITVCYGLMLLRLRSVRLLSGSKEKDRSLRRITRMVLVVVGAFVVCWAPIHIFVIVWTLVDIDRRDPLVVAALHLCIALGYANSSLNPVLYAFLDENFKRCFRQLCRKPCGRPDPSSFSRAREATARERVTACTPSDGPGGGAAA

CO[C@@]12CC[C@@]3(C[C@@H]1[C@](C)(O)C(C)(C)C)[C@H]1Cc4ccc(O)c5c4[C@@]3(CCN1CC1CC1)[C@H]2O5 [Buprenorphine]
Log(tau/KA) transduction coefficient (log10)
Conditions	Gαi1	Gαi2	Gαo	Kir	cAMP	βarrestine 2	βarrestine 2-GRK2	βarrestine 2-GRK5	βarrestine 2-GRK6
[2]	6.16	6.14	6.06	4.6	7.87	–	–	–	–
[3]	5.51	6.73	6.61	4.88	8.45	–	–	–	3.5
mu opioid receptor (rat) [1]	6.88	7.63	7.28	8.05	6.93	5.04	5.79	5.36	–

CO[C@@]12CC[C@@]3(C[C@@H]1[C@](C)(O)C(C)(C)C)[C@H]1Cc4ccc(O)c5c4[C@@]3(CCN1CC1CC1)[C@H]2O5 [Buprenorphine] (receptor: rat DOR)
[4]
Conditions	pEC50
Gαi1	7.49
Gαi2	6.88
Gαo	7.28
Kir	5.53
cAMP	7.78

C[C@@H](NC(=O)[C@@H](N)Cc1ccc(O)cc1)C(=O)NCC(=O)N(C)[C@@H](Cc1ccccc1)C(=O)NCCO [DAMGO]
mu opioid receptor (rat) [1]
Conditions	Log(tau/KA) transduction coefficient (log10)
Gαi1	6.18
Gαi2	7.5
Gαo	6.49
Kir	7.11
cAMP	8.44
βarrestine 1	5.59
βarrestine 2	5.51
βarrestine 2-GRK2	6.21
βarrestine 2-GRK5	6.26
βarrestine 2-GRK6	5.9

CN(C)C(=O)C(CCN1CCC(O)(c2ccc(Cl)cc2)CC1)(c1ccccc1)c1ccccc1 [Loperamide]
Log(tau/KA) transduction coefficient (log10)
Conditions	Gαi1	Gαi2	Gαo	Kir	cAMP	βarrestine 1	βarrestine 2	βarrestine 2-GRK2	βarrestine 2-GRK5	βarrestine 2-GRK6
[2]	4.78	5.24	5.22	5.02	5.9	3.96	4.1	4.29	4.61	4.48
[3]	4.52	5.79	5.28	5.54	7.28	4.05	4.37	4.62	4.71	4.63
mu opioid receptor (rat) [1]	7.2	8.27	7.56	6.46	7.69	6.08	5.68	6.37	6.39	6.04

CN(C)C(=O)C(CCN1CCC(O)(c2ccc(Cl)cc2)CC1)(c1ccccc1)c1ccccc1 [Loperamide] (receptor: rat DOR)
[4]
Conditions	pEC50
Gαi1	5.05
Gαi2	5.42
Gαo	5.51
Kir	5.23
cAMP	6.1
βarrestine 1	4.55
βarrestine 2	4.47
βarrestine 2-GRK2	4.36
βarrestine 2-GRK5	4.83
βarrestine 2-GRK6	4.54

CCC1(c2cccc(O)c2)CCCCN(C)C1 (stereo not given) [Meptazinol]
Log(tau/KA) transduction coefficient (log10)
Conditions	Gαi1	Gαi2	Gαo	Kir	cAMP
[5]	5.23	6.1	6.31	4.84	8.02
mu opioid receptor (rat) [1]	5.15	6.21	5.38	5.41	6.58

CCC1(c2cccc(O)c2)CCCCN(C)C1 (stereo not given) [Meptazinol] (receptor: rat MOR)
mu opioid receptor (rat) [6]
Conditions	pEC50
Gαi1	5.94
Gαi2	6.52
Gαo	6.28
Kir	6.08
cAMP	6.99

CSCC[C@H](NC(=O)[C@H](Cc1ccccc1)NC(=O)CNC(=O)CNC(=O)[C@@H](N)Cc1ccc(O)cc1)C(=O)O [Met-Enk]
Log(tau/KA) transduction coefficient (log10)
Conditions	Gαi1	Gαi2	Gαo	Kir	cAMP	βarrestine 1	βarrestine 2	βarrestine 2-GRK2	βarrestine 2-GRK5	βarrestine 2-GRK6
[2]	5.86	6.55	6.44	4.97	9.4	6.29	6.58	6.67	7.03	6.83
[3]	5.92	7.02	6.59	7.27	8.98	6.24	6.28	6.57	7.12	6.88
[5]	6.47	7.32	7.4	6.58	8.62	5.9	5.97	6.66	6.65	6.36
mu opioid receptor (rat) [1]	7.24	8.73	6.21	6.72	8.44	5.63	5.65	6.24	6.35	6.06

CN1CC[C@]23c4c5ccc(O)c4O[C@H]2[C@@H](O)C=C[C@H]3[C@H]1C5 [Morphine]
Log(tau/KA) transduction coefficient (log10)
Conditions	Gαi1	Gαi2	Gαo	Kir	cAMP	βarrestine 2	βarrestine 2-GRK2	βarrestine 2-GRK5	βarrestine 2-GRK6
[2]	4.41	5.31	5.14	4.79	6.68	4.16	4.24	4.53	4.2
[3]	4.26	5.75	5.24	5.05	8.19	–	–	4.04	3.94
mu opioid receptor (rat) [1]	6.9	8.35	7.99	7.44	8.08	5.69	6.29	6.37	5.35

COc1ccc2c3c1O[C@H]1C(=O)CC[C@@]4(O)[C@@H](C2)N(C)CC[C@]314 [Oxycodone]
Log(tau/KA) transduction coefficient (log10)
Conditions	Gαi1	Gαi2	Gαo	Kir	cAMP	βarrestine 1	βarrestine 2	βarrestine 2-GRK2	βarrestine 2-GRK5	βarrestine 2-GRK6
[2]	2.98	4.41	3.8	3.29	6.08	–	3.12	3.16	3.5	3.31
[3]	3.52	5.21	4.26	3.72	6.63	–	–	3.82	3.15	3.02
mu opioid receptor (rat) [1]	5.49	6.52	5.91	5.97	7.45	5.5	–	4.81	5.06	4.81

COc1cccc(C2(O)CCCCC2CN(C)C)c1 (stereo not given) [Tramadol]
Log(tau/KA) transduction coefficient (log10)
Conditions	Gαi1	Gαi2	Gαo	Kir	cAMP
[5]	3.39	4.54	4.27	3.78	6.29
mu opioid receptor (rat) [1]	2.98	4.73	3.82	3.81	5.02
